Measured values published in patent publication US10450306B2, “Isoxazole analogs as FXR agonists and methods of use thereof” (Enanta Pharmaceuticals, Inc., priority 2016, dated 2019).
Where two headings read alike, the source gives them in different places.

Biological target: T1, human FXR (NR1H4) (Homo sapiens, UniProt Q96RI1)
T1 construct: host or cells: CHO (Chinese hamster ovary) reporter cells
T1 sequence (Q96RI1 1-486): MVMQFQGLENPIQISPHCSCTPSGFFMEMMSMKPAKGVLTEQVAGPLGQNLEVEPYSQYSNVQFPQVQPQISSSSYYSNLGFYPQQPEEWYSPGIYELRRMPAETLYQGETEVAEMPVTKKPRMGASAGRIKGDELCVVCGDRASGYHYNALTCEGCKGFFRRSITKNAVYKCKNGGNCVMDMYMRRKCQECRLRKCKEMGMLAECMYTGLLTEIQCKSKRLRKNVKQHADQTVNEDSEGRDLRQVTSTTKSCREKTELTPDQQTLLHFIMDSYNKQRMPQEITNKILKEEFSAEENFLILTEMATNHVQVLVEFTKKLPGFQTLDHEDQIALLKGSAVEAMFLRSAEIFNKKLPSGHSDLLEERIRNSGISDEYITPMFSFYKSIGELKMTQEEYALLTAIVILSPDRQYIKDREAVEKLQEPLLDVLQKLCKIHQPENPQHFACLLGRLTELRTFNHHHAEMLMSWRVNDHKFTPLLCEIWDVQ
Test: Human FXR (NR1H4) Assay: Gal4 promoter driven luciferase reporter transactivation in CHO cells (Indigo Bioscience kit IB00601); on Efficacy (%): efficacy normalized to CDCA set as 100%
Type: cell-based
Source text: Human FXR (NR1H4) Assay Determination of a ligand mediated Gal4 promoter driven transactivation to quantify ligand binding mediated activation of FXR. FXR Reporter Assay kit purchased from Indigo Bioscience (Catalogue number: IB00601) to determine the potency and efficacy of compound developed by Enanta that can induce FXR activation. The principle application of this reporter assay system is to quantify functional activity of human FXR. The assay utilizes non-human mammalian cells, CHO (Chinese hamster ovary) cells engineered to express human NR1H4 protein (referred to as FXR). Reporter cells also incorporate the cDNA encoding beetle luciferase which catalyzes the substrates and yields photon emission. Luminescence intensity of the reaction is quantified using a plate-reading luminometer, Envision. Reporter Cells include the luciferase reporter gene functionally linked to an FXR responsive promoter. Thus, quantifying changes in luciferase expression in the treated reporter cells provides a sensitive surrogate measure of the changes in FXR activity. […] The assay is according to the manufacturer's instructions. In brief, the assay was performed in white, 96 well plates using final volume of 100 ul containing cells with different doses of compounds. Retrieve Reporter Cells from −80° C. storage. Perform a rapid thaw of the frozen cells by transferring a 10 ml volume of 37° C. cell recovery medium into the tube of frozen cells. Recap the tube of Reporter Cells and immediately place it in a 37° C. water bath for 5-10 minutes. Retrieve the tube of Reporter Cell Suspension from the water bath. Sanitize the outside surface of the tube with a 70% alcohol swab, and then transfer it into the cell culture hood. Dispense 90 μl of cell suspension into each well of the 96-well Assay Plate. Transfer the plate into 37° C. incubator, allowing the cells adherent to the bottom of the well. Dilute compounds in Dilution Plate (DP), and administrate to cells at Assay Plate (AP). DMSO content of the samples was kept at 0.2%. Cells were incubated for additional 22 hours before luciferase activities were measured. Thirty minutes before intending to quantify FXR activity, remove Detection Substrate and Detection Buffer from the refrigerator and place them in a low-light area so that they may equilibrate to room temperature. Remove the plate's lid and discard all media contents by ejecting it into an appropriate waste container. Gently tap the inverted plate onto a clean absorbent paper towel to remove residual droplets. Cells will remain tightly adhered to well bottoms. Add 100 ul of luciferase detection reagent to each well of the assay plate. Allow the assay plate to rest at room temperature for at least 5 minutes following the addition of LDR. Set the instrument (Envision) to perform a single 5 second “plate shake” prior to reading the first assay well. Read time may be 0.5 second (500 mSec) per well.

[1] = Human FXR (NR1H4) reporter assay, potency ranges

| SMILES | Emax (CHO; read-out: Efficacy (%)) [%] | EC50 [1] [µM] | Emax (CHO, read-out: Efficacy (%)) [%] |
| --- | --- | --- | --- |
| O=C(NS(=O)(=O)C1CC1)c1cc(C2CC2)c2nc(N3C4CCC3CC(NCc3c(-c5ccccc5C(F)(F)F)noc3C3CC3)C4)sc2c1 (centres unmarked) [Example 1414] | 89.5 | < 0.001 | – |
| COC(=O)c1ccc2nc(N3C4CCC3CC(NCc3c(-c5c(Cl)cccc5Cl)noc3C3CC3)C4)oc2c1 (centres unmarked) [Example 19] | 78 | 0.1 to 1 | – |
| COC(=O)c1cc2sc(N3C4CCC3CC(NCc3c(-c5c(Cl)cccc5Cl)noc3C3CC3)C4)nc2c2ccccc12 (centres unmarked) [Example 200-27] | 28.3 | 0.001 to 0.1 | – |
| O=C(NS(=O)(=O)C1CC1)c1ccc2nc(N3C4CCC3CC(NCc3c(-c5c(Cl)cccc5Cl)noc3C3CC3)C4)sc2c1 (centres unmarked) [Example 201] | 282 | < 0.001 | – |
| O=C(O)c1ccc2nc(N3C4CCC3CC(NCc3c(-c5ccccc5OC(F)(F)F)noc3C3CC3)C4)sc2c1 (centres unmarked) [Example 402] | 112 | 0.001 to 0.1 | – |
| CC(C)Oc1cc(C(=O)O)cc2sc(N3CCC(NCc4c(-c5c(Cl)cccc5Cl)noc4C4CC4)CC3)nc12 [Example 200-4] | 106 | 0.001 to 0.1 | – |
| COC(=O)c1cc(F)c2nc(N3C4CCC3CC(NCc3c(-c5c(Cl)cccc5Cl)noc3C3CC3)C4)sc2c1 (centres unmarked) [Example 3] | 137 | 0.001 to 0.1 | – |
| CC(C)(C)c1ccc(S(=O)(=O)NC(=O)c2ccc3nc(N4C5CCC4CC(NCc4c(-c6c(Cl)cccc6Cl)noc4C4CC4)C5)sc3c2)cc1 (centres unmarked) [Example 284] | 54 | > 1 | – |
| COC(=O)c1ccc2nc(N3C4CCC3CC(NCc3c(-c5c(Cl)cccc5Cl)noc3C3CC3)C4)cnc2c1 (centres unmarked) [Example 64] | 40 | 0.001 to 0.1 | – |
| CN(Cc1c(-c2c(Cl)cccc2Cl)noc1C1CC1)[C@H]1C[C@H]2CC[C@@H](C1)N2c1nc2ccc(C(=O)NS(=O)(=O)C3(C)CC3)cc2s1 [Example 293] | 92 | 0.001 to 0.1 | – |
| CC1(S(=O)(=O)NC(=O)c2ccc3nc(N4C5CCC4CC(NCc4c(-c6c(Cl)cccc6Cl)noc4C4CC4)C5)sc3c2)CC1 (centres unmarked) [Example 202] | 279 | < 0.001 | – |
| CN(C)S(=O)(=O)NC(=O)c1ccc2nc(N3C4CCC3CC(NCc3c(-c5c(Cl)cccc5Cl)noc3C3CC3)C4)sc2c1 (centres unmarked) [Example 283] | 246 | > 1 | – |
| CCOC(=O)c1ccc2nc(N3C4CCC3CC(NCc3c(-c5ccccc5C(F)(F)F)noc3C3CC3)C4)sc2c1 (centres unmarked) [Example 1412] | 75 | 0.1 to 1 | – |
| COc1cc(C(=O)NCC(=O)O)cc2sc(N3C4CCC3CC(NCc3c(-c5c(Cl)cccc5Cl)noc3C3CC3)C4)nc12 (centres unmarked) [Example 200-11] | 75 | 0.001 to 0.1 | – |
| O=C(O)c1cc(C2CC2)c2nc(N3C4CCC3CC(NCc3c(-c5c(Cl)cccc5Cl)noc3C3CC3)C4)sc2c1 (centres unmarked) [Example 200-30] | 108 | < 0.001 | – |
| COC(=O)c1cc(C2CC2)c2nc(N3C4CCC3CC(NCc3c(-c5ccccc5OC(F)(F)F)noc3C3CC3)C4)sc2c1 (centres unmarked) [Example 643] | 52 | 0.001 to 0.1 | – |
| O=C(O)c1ccc2cc(N3C4CCC3CC(NCc3c(-c5c(Cl)cccc5Cl)noc3C3CC3)C4)ccc2c1 (centres unmarked) [Example 50] | 186 | < 0.001 | – |
| Cc1cc(C(=O)O)cc2sc(N3C4CCC3CC(NCc3c(-c5ccccc5C(F)(F)F)noc3C3CC3)C4)nc12 (centres unmarked) [Example 1405] | 125 | 0.001 to 0.1 | – |
| COc1cc(C(=O)NCCS(=O)(=O)O)cc2sc(N3C4CCC3CC(NCc3c(-c5c(Cl)cccc5Cl)noc3C3CC3)C4)nc12 (centres unmarked) [Example 200-12] | 16.5 | 0.001 to 0.1 | – |
| CCOC(=O)c1ccc2nc(N3C4CCC3CC(NCc3c(-c5ccccc5OC(F)(F)F)noc3C3CC3)C4)sc2c1 (centres unmarked) [Example 696] | 59.1 | 0.001 to 0.1 | – |

| SMILES | Emax (CHO; read-out: Efficacy (%)) [%] | EC50 [1] [µM] | Emax (CHO, read-out: Efficacy (%)) [%] |
| --- | --- | --- | --- |
| O=C(O)c1cc(F)c2nc(N3CCC(NCc4c(-c5ccccc5OC(F)(F)F)noc4C4CC4)CC3)sc2c1 [Example 642] | 85.3 | 0.1 to 1 | – |
| O=C(O)c1cccc(N2CCN(Cc3c(-c4c(Cl)cccc4Cl)noc3C3CC3)CC2)c1 [Example 188] | 15 | > 1 | – |
| CC(C)(C)c1ccc(S(=O)(=O)NC(=O)c2cccc(N3CCN(Cc4c(-c5c(Cl)cccc5Cl)noc4C4CC4)CC3)c2)cc1 [Example 285] | 126 | 0.1 to 1 | – |
| CCOc1cc(C(=O)NS(=O)(=O)C2(C)CC2)cc2sc(N3C4CCC3CC(NCc3c(-c5c(Cl)cccc5Cl)noc3C3CC3)C4)nc12 (centres unmarked) [Example 400-15] | 104 | < 0.001 | – |
| O=C(O)c1cc(OC(F)F)c2nc(N3[C@@H]4CC[C@H]3C[C@@H](NCc3c(-c5c(Cl)cccc5Cl)noc3C3CC3)C4)sc2c1 [Example 190, 2-((1R,3r,5S)-3-(((5-cyclopropyl-3-(2,6-dichlorophenyl)isoxazol-4-yl)methyl)amino)-8-azabicyclo[3.2.1]octan-8-yl)-4-(difluoromethoxy)benzo[d]thiazole-6-carboxylic acid] | 96 | < 0.001 | – |
| COC(=O)c1cc(OC(C)C)c2nc(N3CCC(NCc4c(-c5ccccc5OC(F)(F)F)noc4C4CC4)CC3)sc2c1 [Example 639] | 13 | 0.1 to 1 | – |
| CC(C)(C)CS(=O)(=O)NC(=O)c1ccc2nc(N3C4CCC3CC(NCc3c(-c5c(Cl)cccc5Cl)noc3C3CC3)C4)sc2c1 (centres unmarked) [Example 239] | 201 | 0.001 to 0.1 | – |
| O=C(NS(=O)(=O)N1CCCCC1)c1cc(OC(F)F)c2nc(N3C4CCC3CC(NCc3c(-c5c(Cl)cccc5Cl)noc3C3CC3)C4)sc2c1 (centres unmarked) [Example 328] | 146 | < 0.001 | – |
| CC1(S(=O)(=O)NC(=O)c2cc(F)c3nc(N4CCC(NCc5c(-c6ccccc6OC(F)(F)F)noc5C5CC5)CC4)sc3c2)CC1 [Example 900-4] | 84.8 | > 1 | – |
| COC(=O)c1cc2sc(N3C4CCC3CC(NCc3c(-c5c(Cl)cccc5Cl)noc3C3CC3)C4)nc2cc1F (centres unmarked) [Example 200-15] | 75.8 | 0.001 to 0.1 | – |
| COC(=O)c1cccc(N2CCN(Cc3c(-c4c(Cl)cccc4Cl)noc3C3CC3)CC2)c1 [Example 187] | – | > 1 | 64 |
| O=C(O)c1cc(F)c2nc(N3C4CCC3CC(NCc3c(-c5ccccc5C(F)(F)F)noc3C3CC3)C4)sc2c1 (centres unmarked) [Example 1408] | 103 | 0.001 to 0.1 | – |
| COC(=O)c1cnc2nc(N3C4CCC3CC(NCc3c(-c5c(Cl)cccc5Cl)noc3C3CC3)C4)sc2n1 (centres unmarked) [Example 200-17] | 51.5 | 0.001 to 0.1 | – |
| CN(C)S(=O)(=O)NC(=O)c1ccc2nc(N3C4CCC3CC(NCc3c(-c5c(Cl)cccc5Cl)noc3C3CC3)C4)oc2c1 (centres unmarked) [Example 301] | 63 | < 0.001 | – |
| CC1(S(=O)(=O)NC(=O)c2ccc3nc(N4CCC(NCc5c(-c6c(Cl)cccc6Cl)noc5C5CC5)CC4)sc3c2)CC1 [Example 305] | 139 | 0.1 to 1 | – |
| CC1(S(=O)(=O)NC(=O)c2cnc3nc(N4C5CCC4CC(NCc4c(-c6c(Cl)cccc6Cl)noc4C4CC4)C5)sc3n2)CC1 (centres unmarked) [Example 400-26] | 97.2 | < 0.001 | – |
| COc1cc2nc(N3C4CCC3CC(NCc3c(-c5c(Cl)cccc5Cl)noc3C3CC3)C4)sc2cc1C(=O)O (centres unmarked) [Example 200-8] | 73.5 | < 0.001 | – |
| CC1(S(=O)(=O)NC(=O)c2ccc3nc(N4CCC(NCc5c(-c6ccccc6OC(F)(F)F)noc5C5CC5)CC4)sc3c2)CC1 [Example 900-1] | 80.5 | 0.1 to 1 | – |
| COc1nc2cc(C(=O)NS(=O)(=O)C3(C)CC3)ccc2nc1N1C2CCC1CC(NCc1c(-c3c(Cl)cccc3Cl)noc1C1CC1)C2 (centres unmarked) [Example 342] | 76 | 0.001 to 0.1 | – |
| O=C(O)c1cc2sc(N3C4CCC3CC(NCc3c(-c5c(Cl)cccc5Cl)noc3C3CC3)C4)nc2c2ccccc12 (centres unmarked) [Example 200-28] | 132 | < 0.001 | – |
